Experiment: gradient 5% acetonitrile 3 min, to 50% in 2 min, to 85% in 15 min, held 3 min, 100 µL/min
Settings: column: Zorbax Extend-C18 2.1 x 50 mm; eluents: water / acetonitrile, 0.1% formic acid
Outline: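 The mobile phases were water and acetonitrile, each with 0.1% formic acid, pumped at 100 μL/min through a Zorbax Extend-C18 column (2.1 × 50 mm, 1.8 μm). Pure standards were injected as mixtures of ~100 molecules and detected by a quadrupole time-of-flight mass spectrometer in positive and negative ionization mode. Retention time came from computationally picked adduct peaks, each inspected by hand.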

| RP-LC retention time [s] | SMILES |
| --- | --- |
| 783 | COc1cccc(Cn2nc3ccc(S(=O)(=O)N4CCOCC4)cn3c2=O)c1 |
| 924 | CCCNC(=O)N1CCCN(Cc2ccc3c(c2)OCO3)c2ccccc21 |
| 546 | O=c1[nH]cc(S(=O)(=O)N2CCOCC2)c(=O)[nH]1 |
| 604 | COc1cc(-c2noc(Cn3ccnc3)n2)cc(OC)c1OC |
| 548 | O=C(Nc1ccccc1)N1CC(c2nc3ccccc3[nH]2)C1 |
| 752 | CN(C)c1ccc(NC(=O)Cn2cccc2-c2nc(-c3ccc4c(c3)OCO4)no2)cc1 |
| 1040 | Cc1cccc(NC(=O)CSc2cc(N3CCC(C)CC3)ncn2)c1 |
| 581 | O=C(NCCC1=CCCCC1)C(=O)NCC1CCN(Cc2ccco2)CC1 |
| 1120 | COc1ccc(-c2cc(C(=O)N3CCC(Cc4ccccc4)CC3)no2)cc1 |
| 850 | O=C(Nc1ccccc1C(F)(F)F)NC1CCN(c2ccc(F)cc2)C1=O (configuration not stated) |
| 486 | CNC(=O)C(=O)Nc1ccc(N(C)C)cc1 |
| 651 | COC1CCN(CC2CCCCCN2C(=O)Nc2ccc3c(c2)OCCO3)CC1 (configuration not stated) |
| 664 | Cc1nn(-c2ccc(C(=O)N3CCN(C(=O)c4ccco4)CC3)cc2)c2c1C(=O)CCC2 |
| 809 | CC1CS(=O)(=O)N(c2ccc(C(=O)NCCc3c[nH]c4ccccc34)c(Cl)c2)C1=O (configuration not stated) |
| 1250 | CC[C@@H](C)[C@@H](O)[C@H](C)C(=O)[C@H](C)/C=C(\C)C[C@H](C)[C@@H]1OC(=O)[C@H]1CC |
| 776 | O=C(NCc1ccc2c(c1)OCO2)C1CN(c2nc3c(F)cccc3s2)C1 |
| 1150 | CCOCCCn1c(SCc2nc(-c3ccc(F)cc3)no2)nc2ccccc2c1=O |
| 780 | CCCNC(=O)N1CCc2c(c(-c3nc(Cc4ccccc4)no3)nn2C)C1 |
| 812 | COc1ccc(Nc2c(-c3ccc(N(C)C)cc3)nc3cnc(Br)cn23)cc1OC |
| 797 | Cc1ccc(NC(=O)CN2C(=O)CCc3cc(S(=O)(=O)N4CCCCC4C)ccc32)cc1 (configuration not stated) |
| 602 | Cc1ccc2[nH]cc(CCN3CC(C(=O)NCCN4CCOCC4)CC3=O)c2c1 (configuration not stated) |
| 942 | COc1ccc(C2CC(=O)N(c3ccc(Cl)cc3)C(=O)C2)cc1 |

| RP-LC retention time [s] | SMILES |
| --- | --- |
| 764 | CCC(C)NC(=O)CN1C(=O)CSc2c1c(C)nn2-c1ccccc1 (configuration not stated) |
| 636 | CC1CN2C=NC(N3CCN(C(=O)Nc4ccc(Cl)cc4F)CC3)=CC2=N1 (configuration not stated) |
| 844 | CCN1C(=O)c2cccnc2Sc2cc(NC(=O)c3cccc(F)c3)ccc21 |
| 855 | Cc1ccc(NC(=O)CN2C(=O)CCCc3cc(S(=O)(=O)N4CCCC4)ccc32)cc1 |
| 801 | CCOC(=O)c1nc(NCCc2ccc(OCC)c(OCC)c2)c2ccccc2n1 |
| 604 | Cc1ccc(C2(C)NC(=O)NC2=O)cc1 (configuration not stated) |
| 683 | CS(=O)(=O)c1ccc(C(=O)N2CCN(c3ccccc3)CC2)cc1 |
| 669 | CCN(CC)C(=O)Cn1nc2nc(Nc3ccc(F)cc3)ccn2c1=O |
| 611 | CCN1CCCC1CNC(=O)C1c2cc(OC)c(OC)cc2C(=O)N(C)C1c1ccc(OC)cc1 (configuration not stated) |
| 801 | COc1cc(NC(=O)NC2CCN(c3nc4ccccc4n(C)c3=O)CC2)cc(OC)c1 |
| 1090 | Cn1nccc1-c1cccc(-c2noc(-c3ccc(Br)o3)n2)c1 |
| 576 | O=C(c1ccccc1OCC1CCCNC1)N1CCOCC1 (configuration not stated) |
| 814 | Cn1c(=O)c(N2CCC(NC(=O)NCc3ccc(F)cc3)CC2)nc2ccccc21 |
| 828 | Cc1cccc(N2CCN(CC(O)COc3ccccc3Cl)CC2)c1 (configuration not stated) |
| 853 | O=C(NCc1ccccc1F)c1ccc(NC(=O)C2CCC2)cc1N1CCOCC1 |
| 672 | CCC(C)NC(=O)N1CCN(Cc2nc3cccnc3n2-c2cc(C)cc(C)c2)CC1 (configuration not stated) |
| 792 | O=C(CN1C(=O)CCc2cc(Br)ccc21)Nc1ccc2c(c1)OCO2 |
| 706 | O=c1n(CC2CC2)nc2n1CCC(NS(=O)(=O)Cc1ccccc1F)CC2 (configuration not stated) |
| 566 | COc1ccc(CN2CCC(NC(=O)c3ccc(C#N)cc3)C2)cn1 (configuration not stated) |
| 963 | Cc1ccc(C)c(NC(=O)N2CCCC(C)(C(=O)NCc3ccc(F)cc3)C2)c1 (configuration not stated) |
| 984 | O=S(=O)(c1cc(-c2nnc(-c3ccc(F)cc3)o2)ccc1Cl)N1CCOCC1 |
| 838 | CC(Oc1cccc(Cl)c1)c1nc(-c2ccc3c(c2)ncn3CCC(=O)N2CCCC2)no1 (configuration not stated) |

| RP-LC retention time [s] | SMILES |
| --- | --- |
| 958 | Cc1ccc(CNC(=O)c2cc3sccc3n2C)cc1 |
| 970 | Cn1nc(-c2nnc(-c3ccc(F)cc3)o2)c2c1CCN(S(=O)(=O)Cc1ccccc1Cl)C2 |
| 790 | COc1cc(-c2nc3ncccn3c2NC2CCCCCC2)cc(OC)c1OC |
| 673 | Cc1cccc(CC(=O)N2C[C@@H]3C[C@H]2C[C@@H]3NS(C)(=O)=O)c1 |
| 718 | CCOC(=O)N1CCN(c2ncc(C(=O)Nc3ccc(OCC)cc3)c(N)n2)CC1 |
| 845 | Cc1[nH]c(C(=O)Nc2ccc(F)cc2)c(C)c1S(=O)(=O)N1CCCC1 |
| 618 | CCOC(=O)c1cnc2nc(C)ccc2c1Nc1ccc(O)cc1 |
| 644 | CC(=O)Nc1cccc(NC(=O)C2CC(=O)N(c3n[nH]c4cccc(F)c34)C2)c1 (configuration not stated) |
| 652 | CN1CCc2nc(C(=O)N[C@@H]3C[C@@H](C(=O)N(C)C)CC[C@@H]3NC(=O)C(=O)Nc3ccc(Cl)cn3)sc2C1 |
| 583 | O=C(Nc1cccnc1)C1CCc2nc(N3CCCCC3)ncc2C1 (configuration not stated) |
| 1280 | Cc1ccc(S(=O)(=O)N2CCCC2c2nc(-c3cccc(Cl)c3)no2)cc1F (configuration not stated) |
| 762 | Cc1ccc(N2CCC(NC(=O)CC(C)C)C2=O)cc1 (configuration not stated) |
| 1070 | COc1cc(OC)cc(-c2nnc(-c3ccccc3Cl)o2)c1 |
| 1050 | O=C(Nc1ccccc1Cl)c1cn(CC2CCCO2)cc2c(=O)n(-c3ccccc3)nc1-2 (configuration not stated) |
| 924 | O=C(Nc1ccc2sccc2c1)c1ccc([N+](=O)[O-])s1 |
| 783 | CCc1noc(NC(C)=O)c1-c1ccc(C)c(S(=O)(=O)NCc2cccs2)c1 |
| 794 | CCOc1ccccc1OCC(=O)c1ccc(O)cc1O |
| 645 | CC1Cc2ccccc2N1C(=O)C1CCN(C(=O)c2cc(-c3ccncc3)n[nH]2)CC1 (configuration not stated) |
| 604 | CCOc1ccc(C2=NC3(CCN(C)CC3)NC(c3ccccc3O)C2)cc1 (configuration not stated) |
| 913 | Cc1ccc(C)c(S(=O)(=O)N(C)CC2CCOCC2)c1 |
| 603 | COC1CCC12CCN(Cc1ccccc1C#N)CC2 (configuration not stated) |
| 901 | O=c1c(=O)n(-c2ccccc2)ccn1Cc1nc(-c2ccc(Br)cc2)no1 |

| SMILES | RP-LC retention time [s] |
| --- | --- |
| Cc1nc(C(=O)NC2CCCCC2)c(C)n1C1CCN(C)CC1 | 555 |
